{"source": "patent US20100221823A1", "about": "“METHOD FOR CULTURING MAMMALIAN CELLS TO IMPROVE RECOMBINANT PROTEIN PRODUCTION” (Amgen Inc., priority 2007, published 2010)", "key": {"[1]": {"tested_on": "CHO cell line producing a recombinant IgG2 monoclonal antibody", "assay": "Batch culture in serum-free DMEM/F12 with supplemental polyamines: viable cell density and viability", "format": "cell-based, Chinese hamster", "conditions": "3 days; for Culture viability versus cells without supplemental polyamines (FIG. 1b) / Viable cell density versus basal DMEM/F12 media (FIG. 1a): supplemental polyamine", "experimental": "To test the effect of high concentration polyamine media formulations on cell culture performance a CHO cell line producing a recombinant IgG2 monoclonal antibody was seeded at 2.5×10^5 cells/ml in serum-free DMEM/F12 (SAFC, Lenexa, Kans.). DMEM/F12 contains 503 nM putrescine as a component of the commercial formulation. […] Cells were maintained in suspension culture for three days at 36° C. in 5% CO2. Total cell density and viable cell density were measured using a Guava Easy-Cyte™ flow cytometer and Guava Viacount® Flex reagent (Hayward, Calif.) according to manufacture's instructions.\nFollowing three days culture in the polyamine-supplemented-DMEM/F12 media, viable cell density and culture viability were measured, see FIGS. 1a and 1b. Mean viability is presented as percent of viable cells and viable cell density is presented as number of cells/ml."}, "[2]": {"tested_on": "CHO cell line producing a recombinant IgG1 monoclonal antibody", "conditions": "fed-batch", "experimental": "The medium was an enriched formulation of DMEM/F12 that was less concentrated than the media used in Example 3. The medium already contained putrescine at 0.014 mM. […] Cells were maintained in suspension culture for 8 days at 36° C., 5% CO2. Cultures were fed a rich medium on the fourth day of culture. […] The feed volume was equal to seven percent of the initial batch culture volume. The feed medium contained putrescine and delivered 0.0019 mM putrescine to the cultures as a result of each feed. Glucose was also fed on the fourth day of culture in order to prevent depletion. Viable cell density and cell viability were measured as described above.\nAntibody titer was measured by immunoturbidimetric analysis using a Poly-Chem® analyzer and High Sensitivity IgG reagents (Polymedco, Cortlandt Manor, N.Y.) according to the manufacturer's instructions."}, "[3]": {"tested_on": "four different recombinant monoclonal IgG2 antibody-producing CHO cell lines", "conditions": "fed-batch, 10 μM spermine", "experimental": "The medium was an enriched formulation of DMEM/F12 medium (ingredients supplied by SAFC, Lenexa, Kans.). The medium contained putrescine at a concentration of 0.014 mM. […] Cells were maintained in suspension culture for 11 days at 36° C., 5% CO2. Cultures were fed an enriched feed medium on the fourth, seventh, and ninth days of culture. The feed volume was equal to nine percent of the initial batch culture volume. […] Glucose was also fed on the fourth, seventh, and ninth days of culture in order to prevent depletion. Viable cell density and cell viability were measured as described above.\nThe titer of the antibodies produced in cell culture was determined using POROS® (Applied Biosystems) Protein A chromotagraphy HPLC chromotagraphy."}, "[4]": {"tested_on": "CHO cell line producing a recombinant IgG2 monoclonal antibody", "conditions": "6 days, VM-Soy", "experimental": "VM-Soy basal media contains 0.98 μM (0.1620 mg/l) putrescine as a component of its formulation. […] Cells were seeded at 2.5×10^5 cells/ml and maintained for six days at 36° C. in 5% CO2. Viable cell density and cell viability were measured as described above.\nAntibody titer was measured by immunoturbidietric analysis using a Poly-Chem® analyzer and High Sensitivity IgG reagents (Polymedco, Cortlandt Manor, N.Y.) according to the manufacturer's instructions."}, "[5]": {"tested_on": "Human-human hybridoma HB4C5 cells", "conditions": "spermine 2.4 mM or higher; increased over the control; cited from earlier work"}}, "data": [{"smiles": "Cl.Cl.Cl.Cl.NCCCNCCCCNCCCN", "note": "[spermine, spermine tetrahydrochloride]", "values": [{"measurement": "Spermine concentration giving the greatest increase in cell viability (FIG. 1b)", "setting": "[1]; DMEM/F12", "value": 50, "unit": "µM"}, {"measurement": "Cell viability increase compared to unsupplemented control media", "setting": "[1]; DMEM/F12, 10-50 μM spermine", "value": "up to 20%"}, {"measurement": "Viable cell density increase compared to unsupplemented control media", "setting": "[1]; DMEM/F12, 10-50 μM spermine", "value": "up to 49%"}, {"measurement": "Culture viability versus cells without supplemental polyamines (FIG. 1b)", "setting": "[1]", "value": "higher"}, {"measurement": "Viable cell density versus basal DMEM/F12 media (FIG. 1a)", "setting": "[1]", "value": "higher"}, {"measurement": "Effect of spermine concentration on titer", "setting": "[2]; 0.1-500 μM spermine", "value": "dose-dependent response"}, {"measurement": "Viable cell density versus control (FIGS. 4a and 4b)", "setting": "[2]; 8 days, 0.1-500 μM spermine", "value": "greater"}, {"measurement": "Antibody titer increase compared to the untreated controls (FIG. 4d)", "setting": "[2]; Day 8, 0.1-500 μM spermine", "value": "7-17%"}, {"measurement": "Ending cell viability (FIG. 4c)", "setting": "[2]; Day 8, 5-50 μM spermine", "value": "increased"}, {"measurement": "Antibody titer increase compared to the untreated controls (FIG. 3c)", "setting": "[3]; range over four cell lines", "value": "7-17%"}, {"measurement": "Cell viability versus control without spermine (FIG. 3b)", "setting": "[3]; 11 days", "value": "largely unaffected"}, {"measurement": "Viable cell density versus control without spermine (FIG. 3a)", "setting": "[3]; 11 days", "value": "greater"}, {"measurement": "Spermine concentration giving the greatest increase in antibody concentration (FIG. 2c)", "setting": "[4]", "value": 50, "unit": "µM"}, {"measurement": "Spermine concentration giving the greatest increase in viable cell density (FIG. 2a)", "setting": "[4]", "value": 50, "unit": "µM"}, {"measurement": "Antibody titer increase (greatest)", "setting": "[4]; 50 μM spermine", "value": 9, "unit": "%"}, {"measurement": "Cell viability increase (greatest)", "setting": "[4]; 50 μM spermine", "value": 29, "unit": "%"}, {"measurement": "Viable cell density increase (greatest)", "setting": "[4]; 50 μM spermine", "value": 23, "unit": "%"}, {"measurement": "Antibody titer increase compared to the untreated control", "setting": "[4]; 10-200 μM spermine", "value": "5-9%"}, {"measurement": "Cell viability increase compared to the unsupplemented control", "setting": "[4]; 10-200 μM spermine", "value": "22-29%"}, {"measurement": "Viable cell density increase compared to the unsupplemented control", "setting": "[4]; 10-200 μM spermine", "value": "8-23%"}, {"measurement": "Protein production", "setting": "[5]", "value": "less than 1 mg/l"}]}, {"smiles": "Cl.Cl.NCCCCN", "note": "[putrescine, putrescine dihydrochloride]", "values": [{"measurement": "Culture viability versus cells without supplemental polyamines (FIG. 1b)", "setting": "[1]", "value": "higher"}, {"measurement": "Viable cell density versus basal DMEM/F12 media (FIG. 1a)", "setting": "[1]", "value": "higher"}]}, {"smiles": "NCCCCNCCCN", "note": "[spermidine, spermidine tetrachdrochloride]", "values": [{"measurement": "Culture viability versus cells without supplemental polyamines (FIG. 1b)", "setting": "[1]", "value": "higher"}, {"measurement": "Viable cell density versus basal DMEM/F12 media (FIG. 1a)", "setting": "[1]", "value": "higher"}]}]}
